The source of these data is BindingDB's records for doi:10.3109/14756366.2010.491794 (Nanchang University School of Pharmaceutical Science, 2011).

Sequence of Cannabinoid receptor 1 (Q99NU1 whole entry): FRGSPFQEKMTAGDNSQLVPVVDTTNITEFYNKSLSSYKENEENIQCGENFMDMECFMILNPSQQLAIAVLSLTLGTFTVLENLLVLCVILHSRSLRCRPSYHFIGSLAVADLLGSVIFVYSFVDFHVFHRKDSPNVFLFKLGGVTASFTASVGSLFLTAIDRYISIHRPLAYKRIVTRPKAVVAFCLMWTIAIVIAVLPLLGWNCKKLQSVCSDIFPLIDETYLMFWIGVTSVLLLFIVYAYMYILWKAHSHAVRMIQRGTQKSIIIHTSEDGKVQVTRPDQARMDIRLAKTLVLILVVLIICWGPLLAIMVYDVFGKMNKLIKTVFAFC

In the test the target is Cannabinoid receptor 1 (Cricetulus griseus, UniProt Q99NU1). Description: CB1 Receptor Binding Assay (In Vitro). The procedure:
The target compounds were evaluated using a binding assay towards the CB1 receptor expressed on the membranes of Chinese hamster ovarian (CHO) cells. […] The potent synthetic cannabinoid agonist, [3H]-CP55940, was used as a radioligand (Figure 1). The CHO cells were incubated in 96-well microtiter plates. Various concentrations of the synthesised cannabinoid ligands were added and incubated for 10 min at 37°C. […] The cells were lysed and scintillation fluid was added. […] There were three parallels in the tests.
One may read the IC50 as the concentration at which inhibition is half-maximal. In turn, `Cc1c(C(=O)NN2CCCCCC2)nn(-c2ccc(C(F)(F)F)cc2)c1-c1ccc(Cl)cc1` [5-(4-Chlorophenyl)-4-methyl-1-[4-(trifluoromethyl)phenyl]-N-(azepan-1-yl)-1H-pyrazole-3-carboxamide (12l)] had an IC50 of 98.3 nM. Then `Cc1c(C(=O)NCCCN2CCCC2)nn(-c2ccc(Cl)cc2Cl)c1-c1ccc(Cl)cc1` [5-(4-Chlorophenyl)-1-(2,4-dichlorophenyl)-4-methyl-N-(3-(pyrrolidin-1-yl)propyl)-1H-pyrazole-3-carboxamide (12e)], with 672 nM; and `Cc1c(C(=O)NC2CCC(C)CC2)nn(-c2ccccn2)c1-c1ccc(Cl)cc1` (centres undefined) [5-(4-Chlorophenyl)-4-methyl-1-(pyridin-2-yl)-N-(4-methylcyclohexyl)-1H-pyrazole-3-carboxamide (12j)], with 612 nM. Take `Cc1c(C(=O)NCCCN2CCOCC2)nn(-c2ccc(Cl)cc2Cl)c1-c1ccc(Cl)cc1` [5-(4-Chlorophenyl)-1-(2,4-dichlorophenyl)-4-methyl-N-[3-(4-morpholinyl)propyl]-1H-pyrazole-3-carboxamide (12b)]: the 50% inhibitory concentration (IC50) is 455 nM.

As for `COc1ccc2ccc(CCNC(=O)c3nn(-c4ccc(Cl)cc4Cl)c(-c4ccc(Cl)cc4)c3C)cc2c1` [5-(4-Chlorophenyl)-1-(2,4-dichlorophenyl)-4-methyl-N-[2-(7-methoxynaphthalen-2-yl)ethyl]-1H-pyrazol-3-carboxamide (12g)], the IC50 was 398 nM. `Cc1c(C(=O)NC2CCC(C)CC2)nn(-c2ccc(Cl)cc2Cl)c1-c1ccc(Cl)cc1` (centres undefined) [5-(4-chlorophenyl)-1-(2,4-dichlorophenyl)-4-methyl-N-(4-methylcyclohexyl)-1H-pyrazol-3-carboxamide (12d)] displayed a half-maximal inhibitory concentration (IC50) of 4.31 nM. The molecule `CCN(CC)CCCNC(=O)c1nn(-c2ccc(Cl)cc2Cl)c(-c2ccc(Cl)cc2)c1C` [5-(4-Chlorophenyl)-1-(2,4-dichlorophenyl)-4-methyl-N-[3-(N,N-diethylamino)propyl]-1H-pyrazol-3-carboxamide (12c)] showed a 50% inhibitory concentration (IC50) above 1000 nM.

Take `Cc1c(C(=O)NN2CCCCC2)nn(-c2ccc(C(F)(F)F)cc2)c1-c1ccc(Cl)cc1` [5-(4-Chlorophenyl)-4-methyl-1-[4-(trifluoromethyl)phenyl]-N-(piperidin-1-yl)-1H-pyrazole-3-carboxamide (12k)]: the IC50 was 93.4 nM. Turning to `Cc1c(C(=O)NN2CCCCCC2)nn(-c2ccccn2)c1-c1ccc(Cl)cc1` [5-(4-Chlorophenyl)-4-methyl-1-(pyridin-2-yl)-N-(azepan-1-yl)-1H-pyrazole-3-carboxamide (12i)], the IC50 came to 382 nM. In turn, `Cc1c(C(=O)NC2CCC(C)CC2)nn(-c2ccc(C(F)(F)F)cc2)c1-c1ccc(Cl)cc1` (centres undefined) [5-(4-Chlorophenyl)-4-methyl-1-[4-(trifluoromethyl)phenyl]-N-(4-methylcyclohexyl)-1H-pyrazole-3-carboxamide (12m)] returned an IC50 of 79 nM. Turning to `Cc1c(CN(CC(=O)O)Cc2nn(-c3ccc(Cl)cc3Cl)c(-c3ccc(Cl)cc3)c2C)nn(-c2ccc(Cl)cc2Cl)c1-c1ccc(Cl)cc1` [[2-Bis-[[5-(4-chlorophenyl)-1-(2,4-dichlorophenyl)-4-methyl-1H-pyrazol-3-yl]methyl]amino] acetic acid (13c)], the IC50 was 516 nM. For the molecule `Cc1c(C(=O)NCCCCN2CCCCC2)nn(-c2ccc(Cl)cc2Cl)c1-c1ccc(Cl)cc1` [5-(4-Chlorophenyl)-1-(2,4-dichlorophenyl)-4-methyl-N-(4-(piperidin-1-yl)butyl)-1H-pyrazole-3-carboxamide (12f)], the 50% inhibitory concentration (IC50) is above 1000 nM. The result for `Cc1c(C(=O)NN2CCN(C)CC2)nn(-c2ccc(Cl)cc2Cl)c1-c1ccc(Cl)cc1` [5-(4-Chlorophenyl)-1-(2,4-dichlorophenyl)-4-methyl-N-(4-methylpiperazin-1-yl)-1H-pyrazole-3-carboxamide (12a)] reads 173 nM; that for `Cc1c(C(=O)NN2CCCCC2)nn(-c2ccccn2)c1-c1ccc(Cl)cc1` [5-(4-Chlorophenyl)-4-methyl-1-(pyridin-2-yl)-N-(piperidin-1-yl)-1H-pyrazole-3-carboxamide (12h)], 510 nM.
